Values joined by “and” are separate entries in the source; they are usually repeats but may differ in a detail not shown here. Equal values may be shown once. After the bases stand the sugars from the 5' end (letter, count) and the backbone: PS all phosphorothioate, else s phosphorothioate and o phosphodiester by linkage. Methylation of C is not given here. e = 2'-O-(2-methoxyethyl) (MOE); k = constrained ethyl (cEt); d = 2'-deoxy (DNA)
What was measured:
KRAS = conditions: ASO, A431, 2 µM
IRF5 = conditions: ASO

Sequence	target mRNA inhibition (IRF5; KARPAS-229, 4 µM)	other results
TCCATTTATGTGACTA (sugars k3 d9 k3 e1, PS)	–	target mRNA inhibition (KRAS): 23%
TTCTGTCTATTCATAC (sugars k3 d10 k3, PS)	–	target mRNA inhibition (KRAS): 10%
TAGTGATTAGGTCAAA (sugars kkdddddddddkekek, PS)	–	target mRNA inhibition (KRAS): 51%
AGTCATGGGCTGAGGC (sugars kddddddddddkekek, PS)	25%	–
GTCTAGTGTCATGGAA (sugars kddddddddddkekek, PS)	42%	–
CAATTTTGCATTCCAT (sugars kdddddddddkekeke, PS)	19%	–
TCTGGCCCTTTTGGAA (sugars kdddddddddkekeke, PS)	0%	–
TTGTCTAGTGTCATGG (sugars kkkddddddddkdkdk, PS)	36%	–
TTATTTCTGCTCCAGG (sugars kkddddddddkekekk, PS)	0%	–
GAGTGAGACGAGCAAA (sugars k3 d10 k3, PS)	27%	–
ACCACTGTGTACCCCA (sugars kekdddddddddeekk, PS)	63% and 62%	target mRNA inhibition (IRF5; KARPAS-229, 0.44444 µM): 28%; target mRNA inhibition (IRF5; KARPAS-229, 1.33333 µM): 45%; target mRNA inhibition (IRF5; KARPAS-229, 12 µM): 77%
ACCACTGTGTACCCCA (sugars kkkdddddddddkeke, PS)	39%	–
AGGAGTGAGACGAGCA (sugars kddddddddddkekek, PS)	37%	–
AGGTTCTTGGACTCTC (sugars kkkddddddddkdkdk, PS)	0%	–
ATCACCACTGTGTACC (sugars kkkddddddddkdkdk, PS)	0%	–
CACCACTGTGTACCCC (sugars kkddddddddkekekk, PS)	0%	–
CATTCCATATACACAC (sugars kdddddddddkekeke, PS)	7%	–
GGTCTTGACCTCCCGC (sugars k3 d9 k3 e1, PS)	22%	–
GTAATAGGAGTGAGAC (sugars k3 d10 k3, PS)	11%	–

Sequence	target mRNA inhibition (IRF5; KARPAS-229, 4 µM)	other results
AGGAAGTGAGTCTCAA (sugars k3 d9 k3 e1, PS)	47%	–
GAAGTGAGTCTCAAAC (sugars kdddddddddkekeke, PS)	11%	–
CCAATGCAACATCCAT (sugars kkddddddddkekekk, PS)	0%	–
TGCACTGACACAGGCG (sugars k2 d8 e4 k2, PS)	0%	–
CGGTCTTTGAGGTCTG (sugars kkdddddddddkekek, PS)	44%	–
ACATCTCCACATCAGT (sugars kkdddddddddkdkdk, PS)	28%	–
TCTTGACCTCCCGCTG (sugars kkddddddddkekekk, PS)	19%	–
CCAATTTTGCATTCCA (sugars kkkddddddddkekek, PS)	42%	–
CCCAATGCAACATCCA (sugars kkkdddddddddkeke, PS)	0%	–
CCAATGCAACATCCAT (sugars k2 d8 e4 k2, PS)	0%	–
GTTCTTGGACTCTCAA (sugars k3 d9 k3 e1, PS)	37%	–
TAATAGGAGTGAGACG (sugars k3 d10 k3, PS)	12%	–
TCTTGTCTAGTGTCAT (sugars k3 d10 k3, PS)	0%	–
AGTCATGGGCGTGAGGC (sugars kkddddddddkekekkd, PS)	17%	–
GTGTCATGGAATTTTG (sugars k3 d10 k3, PS)	58%	–
TATTTCTGCTCCAGGT (sugars k3 d9 k3 e1, PS)	45% and 67%	target mRNA inhibition (IRF5; KARPAS-229, 0.44444 µM): 46%; target mRNA inhibition (IRF5; KARPAS-229, 1.33333 µM): 52%; target mRNA inhibition (IRF5; KARPAS-229, 12 µM): 74%
GGTGAGTAGGACGAGT (sugars k3 d10 k3, PS)	48%	–
CCAATTTTGCATTCCA (sugars k3 d9 k3 e1, PS)	–	target mRNA inhibition (IRF5; KARPAS-229, 0.44444 µM): 61% and 54% and 62%; target mRNA inhibition (IRF5; KARPAS-229, 1.33333 µM): 79% and 75% and 82%; target mRNA inhibition (IRF5; KARPAS-229, 12 µM): 88% and 91%
CCTTCTGCAGGGAGTC (sugars kkkddddddddkekek, PS)	0%	–

Source: the OligoGym collection
